# In ChEMBL document CHEMBL1201862, “PubChem BioAssay data set” (2004):
# Calls of active or inactive are those of the source.
# What was measured:
# Cytochrome P450 2C19 = Cytochrome P450 2C19 (Homo sapiens, UniProt P33261); test: Cytochrome panel assay with activity outcomes. Panel member name: p450-cyp2c19 Compounds with AC50 equal or less than 10 uM are considered active; type: functional
# Streptokinase A = molecular target: T1, Streptokinase A (Streptococcus pyogenes serotype M1, UniProt P10520); test: viability-normalized secreted streptokinase activity reduction – plasminogen activation absorbance, OD405, dose response (AID 1914); type: functional, Streptococcus pyogenes M1 GAS;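 further: secreted streptokinase activity via plasminogen activation per viability signal from cell pellet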
# T1 sequence (P10520 whole entry): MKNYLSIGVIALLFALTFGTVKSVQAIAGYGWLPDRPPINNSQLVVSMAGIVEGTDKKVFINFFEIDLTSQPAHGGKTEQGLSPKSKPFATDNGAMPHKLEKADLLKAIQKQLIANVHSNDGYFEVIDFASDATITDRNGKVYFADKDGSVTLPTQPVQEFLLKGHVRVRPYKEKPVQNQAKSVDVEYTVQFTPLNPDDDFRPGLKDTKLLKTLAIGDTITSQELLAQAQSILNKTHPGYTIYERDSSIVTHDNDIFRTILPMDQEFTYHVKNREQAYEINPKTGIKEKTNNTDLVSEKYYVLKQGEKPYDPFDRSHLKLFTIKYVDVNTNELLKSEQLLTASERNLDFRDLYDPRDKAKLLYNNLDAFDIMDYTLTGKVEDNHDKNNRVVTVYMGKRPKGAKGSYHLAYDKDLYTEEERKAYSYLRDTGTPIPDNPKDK
# [1] = test system: Streptococcus sp. 'group A'; test: Streptococcus pyogenes SK(-)GAS viability under kanamycin – luminescence, BacTiterGlo, confirmation, counter-screen for streptokinase expression inhibitor project, dose response (AID 1900); type: functional, organism-based
# Streptococcus = test: GAS UMAA2166 growth inhibition – luminescence, BacTiterGlo, counter-screen for streptokinase expression inhibitor project, dose response (AID 1915); type: functional, organism-based;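 further: potency for reduction of bacterial viability or growth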
# [2] = NIH3T3 cell viability loss – ATP luminescence, mouse fibroblasts, counter-screen, dose response (AID 2010); type: functional, cell-based;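 further: cells exposed to compound for about 90 hours before reading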
# [3] = Trypanosoma cruzi growth suppression in host cells – NIH3T3 host cells, beta-gal luminescence, confirmation (AID 2044); type: functional, cell-based;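 further: intracellular parasites grown in NIH/3T3 mouse fibroblasts as host cells; luminescent beta-galactosidase reporter signal from transgenic T. cruzi replicating inside host cells; inhibitors lower the luminescence signal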
# Cytochrome P450 1A2 = molecular target: T2, Cytochrome P450 1A2 (Homo sapiens, UniProt P05177);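 further: PubChem cytochrome P450 panel assay, CYP1A2 panel member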
# T2 sequence (P05177 whole entry): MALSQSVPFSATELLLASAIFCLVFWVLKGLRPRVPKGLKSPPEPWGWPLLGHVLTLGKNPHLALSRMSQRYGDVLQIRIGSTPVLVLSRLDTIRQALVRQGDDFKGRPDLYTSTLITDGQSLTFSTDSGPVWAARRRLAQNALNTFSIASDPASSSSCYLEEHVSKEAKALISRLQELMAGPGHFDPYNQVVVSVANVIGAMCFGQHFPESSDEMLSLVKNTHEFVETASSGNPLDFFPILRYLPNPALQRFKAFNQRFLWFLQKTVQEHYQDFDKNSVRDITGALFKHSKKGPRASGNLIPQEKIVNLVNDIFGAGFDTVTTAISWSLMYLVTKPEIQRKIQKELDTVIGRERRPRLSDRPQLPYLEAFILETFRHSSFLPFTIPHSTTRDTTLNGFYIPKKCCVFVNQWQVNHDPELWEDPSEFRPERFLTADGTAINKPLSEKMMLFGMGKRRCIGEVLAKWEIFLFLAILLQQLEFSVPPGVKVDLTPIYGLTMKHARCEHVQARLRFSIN
# [4] = molecular target: T3, Heat shock factor protein 1 (Mus musculus, UniProt P38532); test: decrease of HSF1-responsive luciferase luminescence – cell-based, NIH3T3, dose retest, confirmation (AID 2382); type: functional;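 further: NIH3T3 fibroblasts with HSF1-driven luciferase reporter stressed by proteasome inhibitor MG132; luminescence from HSF1-driven luciferase expression after 8 hours of MG132 stress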
# T3 sequence (P38532 whole entry): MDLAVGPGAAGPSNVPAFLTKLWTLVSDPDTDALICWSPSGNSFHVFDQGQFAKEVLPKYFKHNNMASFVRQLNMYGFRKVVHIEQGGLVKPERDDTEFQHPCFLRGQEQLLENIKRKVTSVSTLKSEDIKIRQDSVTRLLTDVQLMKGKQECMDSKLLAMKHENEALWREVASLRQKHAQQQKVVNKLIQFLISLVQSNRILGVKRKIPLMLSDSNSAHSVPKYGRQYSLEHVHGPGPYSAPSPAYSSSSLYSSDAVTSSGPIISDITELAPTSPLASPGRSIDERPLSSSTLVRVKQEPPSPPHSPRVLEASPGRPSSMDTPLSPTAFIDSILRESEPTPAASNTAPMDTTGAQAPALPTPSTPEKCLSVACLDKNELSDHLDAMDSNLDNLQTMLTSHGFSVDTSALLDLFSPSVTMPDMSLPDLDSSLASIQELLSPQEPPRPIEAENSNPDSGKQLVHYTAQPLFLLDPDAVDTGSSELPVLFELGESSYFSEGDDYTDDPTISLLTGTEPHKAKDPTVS
# Chain of Cytochrome P450 2C19 (P33261 whole entry): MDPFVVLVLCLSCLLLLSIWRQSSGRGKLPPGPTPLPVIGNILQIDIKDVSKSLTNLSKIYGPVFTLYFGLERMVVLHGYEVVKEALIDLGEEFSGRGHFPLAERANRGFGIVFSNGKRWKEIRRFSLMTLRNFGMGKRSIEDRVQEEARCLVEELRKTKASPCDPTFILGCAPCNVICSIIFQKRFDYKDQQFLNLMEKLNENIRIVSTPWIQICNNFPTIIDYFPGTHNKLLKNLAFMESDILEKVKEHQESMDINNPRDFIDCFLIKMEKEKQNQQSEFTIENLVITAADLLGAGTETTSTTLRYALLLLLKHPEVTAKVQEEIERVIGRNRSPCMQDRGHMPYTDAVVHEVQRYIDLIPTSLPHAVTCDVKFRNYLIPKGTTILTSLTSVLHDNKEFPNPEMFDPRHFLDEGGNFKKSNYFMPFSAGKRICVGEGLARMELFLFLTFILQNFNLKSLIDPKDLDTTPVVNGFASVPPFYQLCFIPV
smiles,measurement,setting,value
Oc1ccccc1CNn1cnnc1,AC50,Cytochrome P450 2C19; read-out: AC50,0.2 µM (inconclusive)
Cc1ccccc1-c1nc2c3ccccc3nc(S)n2n1,EC50,Streptokinase A,> 150 µM (not active)
same,EC50,[1],14 µM (active)
same,EC50,Streptococcus,> 150 µM (not active)
Cc1ccc(CN2CCN(Cc3cccc4c3OCO4)CC2CCO)cc1 (stereo not given),EC50,[2],> 60 µM (not active)
same,EC50,[3],0.258 µM (active)
O=C(O)COc1ccc(/C=N/Nc2nc(Nc3ccccc3)nc(N3CCCCC3)n2)cc1,EC50,Streptokinase A,> 150 µM (not active)
same,EC50,[1],18.2 µM (active)
same,EC50,Streptococcus,16.7 µM (active)
COc1ccc(C(=O)C2CCCN(Cc3ccc(C#CCCO)cc3)C2)cc1F (stereo not given),EC50,[2],> 60 µM (not active)
same,EC50,[3],0.475 µM (active)
CCn1c(=O)c(C(=O)NNC(=O)c2ccccc2)c(O)c2ccccc21,EC50,Streptokinase A,> 150 µM (not active)
same,EC50,[1],7.44 µM (active)
same,EC50,Streptococcus,20.9 µM (active)
Cc1ccc(CN(C(=O)Cc2cccs2)C(C(=O)NC2CCCC2)c2ccncc2)cc1 (stereo not given),EC50,[2],> 60 µM (not active)
same,EC50,[3],2.29 µM (active)
O=C(NC(=S)Nn1cnc2c(cnn2-c2ccccc2)c1=O)c1ccc(Oc2ccccc2)cc1,EC50,Streptokinase A,> 150 µM (not active)
same,EC50,Streptococcus,> 150 µM (not active)
S=C1NCN2CCN(CC2)CNC(=S)C(=S)NCN2CCN(CC2)CNC1=S,AC50,Cytochrome P450 1A2,3.16 µM (inconclusive)
CN(C)c1ccc(C(=S)N2CCN(S(=O)(=O)c3ccccc3)CC2)cc1,EC50,[2],> 60 µM (not active)
same,EC50,[3],2.98 µM (active)
COc1ccc(/C=N/n2c(C)nc3c4ccccc4nc-3c2O)cc1CN1CCCC(C)(C)C1,EC50,Streptokinase A,> 150 µM (not active)
same,EC50,[1],10.9 µM (active)
same,EC50,Streptococcus,> 150 µM (not active)
Cc1nc(-c2ccc(Cl)cc2)sc1C1(C)CC(c2ccc(Cl)cc2)=NO1 (stereo not given),EC50,[4],> 195 µM (not active)
CN(CC1CCCO1)S(=O)(=O)c1ccc(C(=O)Nc2ccc(F)cc2)cc1 (stereo not given),EC50,Streptokinase A,> 150 µM (not active)
same,EC50,[1],> 150 µM (not active)
same,EC50,Streptococcus,> 150 µM (not active)
Cc1ccc(C)c(NC(=O)COc2coc(CN3CCc4ccccc4C3)cc2=O)c1,EC50,[4],> 195 µM (not active)
CC1CCN(c2nc(-c3ccccc3)cc(C(F)(F)F)n2)CC1,EC50,Streptokinase A,9.36 µM (inconclusive)
same,EC50,[1],3.73 µM (active)
same,EC50,Streptococcus,9.37 µM (active)
O=C(CSc1nnc(NC(=O)C2CC(=O)N(c3ccc(F)cc3)C2)s1)NCc1ccco1 (stereo not given),EC50,Streptokinase A,> 150 µM (not active)
same,EC50,[1],> 150 µM (not active)
same,EC50,Streptococcus,> 150 µM (not active)
COc1ccc(C(Nc2ccccn2)c2c(NC(=O)c3ccco3)sc(C)c2C)cc1 (stereo not given),EC50,[2],> 60 µM (not active)
same,EC50,[3],1.86 µM (active)
CC(=O)N(CCCc1ccc(C(C)(C)C)cc1)CCCN(C)C,EC50,[2],> 60 µM (not active)
same,EC50,[3],0.65 µM (active)
Cc1ccc(S(=O)(=O)c2c(C(=O)c3ccccc3)cnc3cc4c(cc23)OCCO4)cc1,EC50,[4],> 195 µM (not active)
N#CCCn1c(=O)cnc2cnc(Oc3ccccc3)nc21,AC50,Cytochrome P450 1A2,15.8 µM (inconclusive)
CC(C)NC(=O)N1CC2(CCN(C(=O)c3cc(C(F)(F)F)cc(C(F)(F)F)c3)CC2)C1,AC50,Cytochrome P450 1A2,12.6 µM (inconclusive)
CNc1cc(N2CCCCCC2)ccc1[N+](=O)[O-],AC50,Cytochrome P450 2C19; read-out: AC50,3.55 µM (inconclusive)
COC(=O)c1cc2ccsc2n1Cc1nc(-c2ccc(Cl)cc2)oc1C,EC50,[4],> 195 µM (not active)
COc1cccc(CNC(=O)Cn2c(=O)c3cccn3c3ccccc32)c1,EC50,[4],> 195 µM (not active)
COC(=O)c1cc(=O)n(C2CC2)/c(=N/C2CC2)s1,AC50,Cytochrome P450 2C19,inconclusive
N#Cc1cccc(-c2nccc(NCc3cccnc3)n2)c1,AC50,Cytochrome P450 2C19; read-out: AC50,20 µM (inconclusive)
COc1ccc(C2C(=O)N(C3CCCCCC3)CC(=O)N2Cc2ccccc2)cc1OC (stereo not given),AC50,Cytochrome P450 2C19; read-out: AC50,39.8 µM (inconclusive)
O=C1CC(c2nc3ccccc3[nH]2)CN1c1ccccc1F (stereo not given),EC50,[4],> 195 µM (not active)
CSc1ncc(C(=O)Nc2cccnc2)c(C(F)(F)F)n1,EC50,[4],> 195 µM (not active)
CCOC(=O)Cc1csc(NC(=O)CSc2nnc(-c3ccc(OC)cc3)n2C)n1,EC50,[2],> 60 µM (not active)
same,EC50,[3],> 60 µM (not active)
O=C(Cn1cnc2c(nnn2Cc2ccc(Cl)cc2)c1=O)N1CCCc2ccccc21,EC50,[4],> 195 µM (not active)
C[C@@](N)(C(=O)O)c1cccc(CC(=O)O)c1,AC50,Cytochrome P450 1A2,39.8 µM (inconclusive)
same,AC50,Cytochrome P450 2C19; read-out: AC50,20 µM (inconclusive)
CC(=O)Nc1c(O)oc2ccccc2/c1=N\C(C)C,AC50,Cytochrome P450 2C19,inconclusive
NC(=O)C1CCN(c2ccnc3cc(Cl)ccc23)CC1,EC50,[4],> 195 µM (not active)
O=[N+]([O-])c1ccc(Sc2nccn2Cc2ccccc2)c([N+](=O)[O-])c1,EC50,[2],> 60 µM (not active)
same,EC50,[3],3.06 µM (active)
COc1cc(NC(=O)c2cc3cccc(OC)c3o2)cc(C(=O)Nc2cccc(C(F)(F)F)c2)c1,EC50,[4],3.5 µM (active)
Cc1ccc(Cn2ncc3c(N4CCN(C)CC4)ncnc32)cc1,EC50,[4],> 195 µM (not active)
O=C(CSc1nc2cc(Cl)ccc2s1)Nc1cccc(S(=O)(=O)N2CCOCC2)c1,EC50,[4],> 195 µM (not active)
CCCN1C(=O)/C(=C\c2ccncc2)S/C1=N/c1ccccc1,EC50,[4],> 195 µM (not active)
O=c1c(-c2cc(F)cc(F)c2)nc2cnc(N3CCOCC3)nc2n1-c1ccccc1,AC50,Cytochrome P450 1A2,5.01 µM (inconclusive)
COC(=O)[C@H]1[C@H]2C[C@@H]3c4[nH]c5cc(OC)ccc5c4CCN3C[C@H]2C[C@@H](OC(=O)c2ccc(N)cc2)[C@@H]1OC,EC50,[4],> 195 µM (not active)
same,EC50,[2],> 30 µM (not active)
same,EC50,[3],2.04 µM (active)
CN(C)/C=C/C(=O)c1ccc(-c2ccc(Cl)cc2Cl)o1,EC50,[4],> 195 µM (not active)
COc1ccc(-n2c(=O)[nH]cc(C(=O)Nc3ccc4c(c3)OCCO4)c2=O)cc1,AC50,Cytochrome P450 2C19; read-out: AC50,10 µM (inconclusive)
CN(C)CCCNc1cnnc(O)c1Cl,EC50,[2],> 30 µM (not active)
same,EC50,[3],0.658 µM (active)
Cc1ccccc1Nc1c(-c2ccncc2)nc2ccc(Br)cn12,EC50,[2],> 30 µM (not active)
same,EC50,[3],0.832 µM (active)
CCOC(=O)c1cnc(-c2ccccc2)nc1Oc1cccc(Cl)c1,AC50,Cytochrome P450 2C19; read-out: AC50,3.98 µM (inconclusive)
O=C(O)CCN1Cc2ccccc2C1=O,EC50,[4],> 195 µM (not active)
CC(C)Cn1c(=O)n(C)c(=O)c2[nH]cnc21 [ISOBUTYLMETHYLXANTHINE],AC50,Cytochrome P450 1A2,20 µM (inconclusive)
CC1=[N+]([O-])C2(C)CCCCC2(O)[N+]([O-])=C1C (stereo not given),AC50,Cytochrome P450 2C19; read-out: AC50,15.8 µM (inconclusive)
CCN(CC)S(=O)(=O)c1ccc(N2CCN(c3cccc(OC)c3)CC2)c([N+](=O)[O-])c1,EC50,[2],> 60 µM (not active)
same,EC50,[3],1.3 µM (active)
CSc1nc(NCc2ccccc2)c2c3c(sc2n1)CN(C)CC3,EC50,[2],> 30 µM (not active)
same,EC50,[3],0.208 µM (active)
CCCc1c(OCCCOc2ccc(OCC(=O)O)cc2)ccc(CC=O)c1O,AC50,Cytochrome P450 1A2,31.6 µM (inconclusive)
Nn1c(=O)c2ccccc2n2c(SCc3ccccc3)nnc12,EC50,[4],> 195 µM (not active)
Cc1ccccc1-n1cnc2c(sc3nc(N4CCOCC4)c4c(c32)CCCC4)c1=O,EC50,[2],> 60 µM (not active)
same,EC50,[3],1.8 µM (active)
